Laboratory results published in US8129527B2, “Analogs of dehydrophenylahistins and their therapeutic use” (Nereus Pharmacuticals, Inc., priority 2006, dated 2012).
≈ marks a conversion by molar mass, not a printed value. Like-named read-outs stand apart in the source and are kept apart here.

Experiments:
[1] = tested on: HT-29 human colon cells; assay: Tumor cytotoxicity assay, resazurin fluorescence, 48 h (Example 6); format: cell-based; details: for EC50: Homo sapiens
[2] = tested on: P388 murine leukemia cells; assay: Cytotoxic effect in P388 cells; format: cell-based; details: Mus musculus, P388, read-out: IC50 (nM) P-388; Table 2
Excerpt: The cytotoxic effects of phenylahistin, dehydrophenylahistin and various derivatives of dehydrophenylahistin were examined in P388 murine leukemia cells, HT-29 human colon cells, and PC-3 prostatic adenocarcinoma cells.

[3] = tested on: Aspergillus fumigatus; assay: Antifungal susceptibility testing, broth dilution (MIC/MFC); format: cell-based; details: Aspergillus fumigatus, read-out: MIC
Protocol: (§1) Specifically, disclosed compounds were evaluated alongside commercially available microtubulin inhibitors as well as recognized antifungal agents.
(§2) Microorganisms against which these compounds were tested included: Candida albicans, Candida glabrata, Aspergillus fumigatus, Trichophyton rubrum, Trichophyton mentagrophytes, Epidermophyton floccosum. With the exception of Candida glabrata (one isolate), two isolates of each species were tested.
(§3) The minimum lethal concentration (MLC) was determined by plating […] from the MIC concentration and each concentration above the MIC. […] When a MIC was obtained, a minimum fungicidal concentration (MFC) was determined to assess the fungistatic/fungicidal nature of the compound.

[4] = tested on: Candida albicans; assay: as above; format: cell-based
Protocol: as §1, §2, §3

[5] = tested on: Candida glabrata; assay: as above; format: cell-based; details: C. glabrata
Protocol: as §1, §2, §3

[6] = tested on: Trichophyton rubrum; assay: as above; format: cell-based
Protocol: as §1, §2, §3

[7] = tested on: Trichophyton mentagrophytes; assay: as above; format: cell-based; details: in words
Protocol: Specifically, disclosed compounds were evaluated alongside commercially available microtubulin inhibitors as well as recognized antifungal agents. […].
as §2
Drug concentrations were 0.03-16 μg/ml for the investigational compounds, 0.015-8 μg/ml for itraconazole and griseofulvin.
as §3, with “compound. […] The compound is scored as fungistatic if the cells are able to resume growth and fungicidal if no regrowth is possible because the compound had killed the organisms.” for “compound.”

[8] = tested on: HT-29 human colorectal carcinoma cells; assay: Cell growth inhibition assay, resazurin (Table 3.2); format: cell-based; details: Table 3.2, HT-29 cells, read-out: EC50 (M) Mean
Protocol: The cytotoxic effects of various derivatives of dehydrophenylahistin against HT-29 human colorectal carcinoma cells were determined.
HT-29 cells (ATCC; HTB-38) were maintained in ATCC recommended culture media and cultured in an incubator at 37° C. in 5% CO2 and 95% humidified air.
For cell growth inhibition assays, HT-29 cells were seeded at 5×10^3 cells/well in 90 μl complete media into a Corning 3904 black-walled, clear-bottom tissue culture plates and the plates were incubated overnight to allow cells to establish and enter log phase growth. 20 mM stock solutions of compounds were prepared in 100% DMSO and stored at −80° C. 10× concentrated serial dilutions of the compounds were prepared in culture medium for final concentrations ranging from 20 μM to […]. Ten μl volumes of the 10× serial dilutions were added to the test wells in triplicate and the plates returned to the incubator for 48 hours. The final concentration of DMSO was 0.25% in all samples.
(§4) Following 48 hours of drug exposure, 10 μl of 0.2 mg/ml resazurin (obtained from Sigma-Aldrich Chemical Co.) in Mg^2+, Ca^2+ free phosphate buffered saline was added to each well and the plates were returned to the incubator for 3-4 hours. […] Resazurin dye in medium without cells was used to determine the background, which was subtracted from the data for all experimental wells.

[9] = tested on: MES-SA human uterine sarcoma; assay: Cell growth inhibition assay, resazurin (Example 11); format: cell-based; details: mean ± standard deviation of three independent experiments
Protocol: (§5) Human uterine sarcoma (MES-SA; CRL-1976), its multidrug resistant derivative (MES-SA/Dx5; CRL-1977), human acute promyelocytic leukemia cells (HL-60; CCL-240) and its multidrug resistant derivative (HL-60/MX2; CRL-2257) were purchased from ATCC and maintained in appropriate culture media. The cells were cultured in an incubator at 37° C. in 5% CO2 and 95% humidified air.
(§6) For cell growth inhibition assays, MES-SA and MES-SA/Dx5 cells were both seeded at 3×10^3 cells/well in 90 μl complete media into 96 well (Corning; 3904) black-walled, clear-bottom tissue culture plates and the plates were incubated overnight to allow cells to establish and enter log phase growth. HL-60 and HL-60/MX2 cells were both seeded at 5×10^4 cells/well in 90 μl complete media into 96 well plates on the day of compound addition. 20 mM stock solutions of the compounds were prepared in 100% DMSO and stored at −80° C. […] Ten μl volumes of the 10× serial dilutions were added to the test wells in triplicate and the plates returned to the incubator for 48 hours. The final concentration of DMSO was 0.25% in all samples.
as §4, with “3-6” for “3-4”
(§7) The multidrug resistant MES-SA/Dx5 tumor cell line was derived from the human uterine sarcoma MES-SA tumor cell line and expresses elevated P-Glycoprotein (P-gp), an ATP dependent efflux pump. The data in Table 19 summarize the growth inhibitory effects of NPI-2421, NPI-2463, NPI-2503, NPI-2504 and NPI-2506 against MES-SA and its multidrug resistant derivative MES-SA/Dx5. Paclitaxel, a known substrate of the P-gp pump was included as a control.

[10] = tested on: MES-SA/Dx5 multidrug resistant; assay: as above; format: cell-based, human
Protocol: as §5, §6
as §4, with “3-6” for “3-4”
as §7

[11] = tested on: HL-60 human acute promyelocytic leukemia cells; assay: as above; format: cell-based; details: mean values of two independent experiments
Protocol: as §5, §6
as §4, with “3-6” for “3-4”
(§8) HL-60/MX2 is a multidrug resistant tumor cell line derived from the human promyelocytic leukemia cell line, HL-60 and expresses reduced topoisomerase II activity. The data presented in Table 20 summarize the growth inhibitory effects of NPI-2421, NPI-2463, NPI-2503, NPI-2504 and NPI-2506 against HL-60 and its multidrug resistant derivative HL-60/MX2. Mitoxantrone, the topoisomerase II targeting agent was included as a control.

[12] = tested on: HL-60/MX2 multidrug resistant; assay: as above; format: cell-based, human
Protocol: as §5, §6
as §4, with “3-6” for “3-4”
as §8

[13] = tested on: HT-29 human colorectal carcinoma cells; assay: Cytotoxic effect against HT-29 cells (Table 30); format: cell-based
Protocol: The following additional dehydrophenylahistin derivatives were synthesized according to the methods described herein and their cytotoxic effect against HT-29 human colorectal carcinoma cells were determined.

[14] = tested on: MES-SA/Dx5 (Taxol Resistant) human uterine sarcoma; assay: Drug resistant cell line pair, cytotoxicity (Example 10B); format: cell-based; details: vs MES-SA
Excerpt: 1) Human Uterine Sarcoma Tumor Cell Line Pair: MES-SA (Taxol Sensitive) and MES-SA/Dx5 (Taxol Resistant).

[15] = tested on: PC-3 prostatic adenocarcinoma cells; assay: Tumor cytotoxicity assay, resazurin fluorescence, 48 h (Example 6); format: cell-based, human; details: Homo sapiens, read-out: EC50 (nM) PC-3
Protocol: 10× concentrated serial dilutions of the two compounds were prepared in appropriate culture medium for final concentrations ranging from 2.0×10^−5 M to 2.0×10^−10 M. Ten μl volumes of the 10× serial dilutions were added to the test wells in triplicate and the plates returned to the incubator for 48 hours.
as §4, with “exposure” for “exposure,”, “PBS” for “phosphate buffered saline”, “dye” for “dye in medium”, “wells. The data were analyzed using Prism software (GraphPad Software).” for “wells.”
PC-3, a human prostate adenocarcinoma, was maintained in F12K complete medium (F12K medium supplemented with 10% FBS; 2 mM Glutamine; 1% HEPES; and Pen/Strep at 100 IU/ml and 100 µg/ml, respectively).

[16] = Candida albicans, C. albicans 90028, read-out: MIC
[17] = Nakaseomyces glabratus, read-out: MIC
[18] = HT-29 cells, read-out: EC50 (M) Mean

Structure (SMILES): C=CC(C)(C)c1[nH]cnc1/C=C1\NC(=O)[C@H](Cc2ccccc2)NC1=O [(−)-Phenylahistin, reference compound]
- EC50 ([1]; HT-29, Table 2, read-out: EC50 (nM) HT-29): 1600 nM
- IC50 [2]: 833 ± 153 nM
- MIC ([3]; A. fumigatus isolate #1): > 16 µg/mL
- MIC ([3]; A. fumigatus isolate #2): > 16 µg/mL
- MIC [4, 16]: > 70 µg/mL
- MIC [5, 17]: > 70 µg/mL
- antifungal potency versus T. rubrum ([6]; in words): significantly less potent than the other compounds
- antifungal potency versus the sensitive T. mentagrophytes isolate [7]: weaker but more comparable to the others

Structure (SMILES): CC(C)(C)c1ocnc1/C=c1\[nH]c(=O)/c(=C/c2c(F)ccc(F)c2F)[nH]c1=O [Compound 2506, tBu-oxadelta-PLH-2,3,6-trifluoro]
- EC50 [8]: 2.4e-08 M
- EC50 [9]: 22 ± 3 nM
- EC50 ([10]; Homo sapiens, MES-SA/Dx5, mean ± standard deviation of three independent experiments): 27 ± 6 nM
- cytotoxic activity against both MES-SA and MES-SA/Dx5 ([10]; in words): retained equivalent cytotoxic activity
- Fold change ([10]; ratio of EC50 values (MES-SA/Dx5:MES-SA)): 1.2
- EC50 [11]: 32 nM
- EC50 ([12]; Homo sapiens, HL60/MX2, HL-60/MX2, mean values of two independent experiments): 31 nM
- cytotoxic activity against both HL-60 and HL-60/MX2 ([12]; in words): retained cytotoxic activity
- Fold change ([12]; ratio of EC50 values (HL-60/MX2:HL-60)): 1.0

Structure (SMILES): CC(C)(C)c1[nH]cnc1/C=c1\[nH]c(=O)/c(=C/c2cccc(OP(=O)(O)O)c2)[nH]c1=O [Compound 2521]
- EC50 ([13]; HT-29, read-out: EC50 (M) Mean): 2.8e-07 M

Structure (SMILES): COC(=O)c1cccc(/C=c2\[nH]c(=O)/c(=C/c3nc[nH]c3C(C)(C)C)[nH]c2=O)c1 [Compound 2527]
- EC50 ([13]; HT-29, read-out: EC50 (M) Mean): 1.9e-07 M

Structure (SMILES): CC(C)(C)c1[nH]cnc1/C=c1\[nH]c(=O)/c(=C/c2cccc(C(=O)O)c2)[nH]c1=O [Compound 2528]
- EC50 [13, 18]: > 2e-05 M

Structure (SMILES): CC(C)(C)c1[nH]cnc1/C=c1\[nH]c(=O)/c(=C/c2cccc(C(N)=O)c2)[nH]c1=O [Compound 2529]
- EC50 ([13]; HT-29, read-out: EC50 (M) Mean): 5e-06 M

Structure (SMILES): CC(C)(C)c1ocnc1/C=c1\[nH]c(=O)/c(=C/c2cccc(C(N)=O)c2)[nH]c1=O [Compound 2533]
- EC50 [13, 18]: 1.8e-06 M

Structure (SMILES): CC(C)(C)c1ocnc1/C=c1\[nH]c(=O)/c(=C/c2cccc(C(=O)c3ccc(CN)cc3)c2)[nH]c1=O [Compound 2534]
- EC50 ([13]; HT-29, read-out: EC50 (M) Mean): 5.3e-07 M

Structure (SMILES): CC(C)(C)c1ocnc1/C=c1\[nH]c(=O)/c(=C/c2cccc(C(=O)c3ccc(CNC(=O)CCCCCNC(=O)CCCCCNC(=O)CCCC[C@@H]4SC[C@H]5NC(=O)N[C@@H]45)cc3)c2)[nH]c1=O [Compound 2545]
- EC50 [13, 18]: 1.1e-06 M

Structure (SMILES): COc1ccc(/C=c2\[nH]c(=O)/c(=C/c3nc[nH]c3C(C)(C)C)[nH]c2=O)c(OC)c1OC [KPU-17, tBu-ΔPLH-2,3,4-triOMe]
- EC50 ([1]; HT-29, Table 3, read-out: EC50 (nM) HT-29): 4060 nM
- cytotoxic activity against HT-29 cells ([1]; in words): also showed activity
- antifungal potency compared with griseofulvin ([6]; Trichophyton species): equivalent in potency or in some cases more potent than griseofulvin

Structure (SMILES): C[C@@H]1[C@H](O)[C@@H](C)/C=C/C=C/C=C/C=C/C=C/C=C/C=C/[C@H](O[C@@H]2O[C@H](C)[C@@H](O)[C@H](N)[C@@H]2O)C[C@@H]2O[C@](O)(C[C@@H](O)C[C@@H](O)[C@H](O)CC[C@@H](O)C[C@@H](O)CC(=O)O[C@H]1C)C[C@H](O)[C@H]2C(=O)O [amphotericin B, Amphotericin B]
- MFC ([4]; C. albicans 10231): 0.5 µg/mL (≈ 0.541 µM)
- MIC ([4]; C. albicans 10231): 0.5 µg/mL (≈ 0.541 µM)
- MFC ([4]; C. albicans 90028): 0.5 µg/mL (≈ 0.541 µM)
- MIC ([4]; C. albicans 90028): 0.5 µg/mL (≈ 0.541 µM)
- MFC [5]: 1 µg/mL (≈ 1.08 µM)
- MIC [5]: 1 µg/mL (≈ 1.08 µM)

Structure (SMILES): CCCCNC(=O)n1c(NC(=O)OC)nc2ccccc21 [benomyl, Benomyl]
- MFC ([4]; Candida albicans, C. albicans 90028, read-out: MFC): > 512 µg/mL
- MIC [4, 16]: 64 µg/mL (≈ 220 µM)
- MFC ([5]; Nakaseomyces glabratus, read-out: MFC): > 512 µg/mL
- MIC [5, 17]: 64 µg/mL (≈ 220 µM)

Structure (SMILES): COc1cccc2c1C(=O)c1c(O)c3c(c(O)c1C2=O)C[C@@](O)(C(=O)CO)C[C@@H]3O[C@H]1C[C@H](N)[C@H](O)[C@H](C)O1 [doxorubicin, Doxorubicin, reference compound]
- reduced susceptibility of the MES-SA/DX5 cell line [14]: 34 fold

Structure (SMILES): COc1cc([C@@H]2c3cc4c(cc3[C@@H](O[C@@H]3O[C@@H]5CO[C@@H](C)O[C@H]5[C@H](O)[C@H]3O)[C@H]3COC(=O)[C@H]23)OCO4)cc(OC)c1O [etoposide, Etoposide, reference compound]
- reduced susceptibility of the MES-SA/DX5 cell line [14]: 60 fold

Structure (SMILES): CCC(C)n1ncn(-c2ccc(N3CCN(c4ccc(OCC5COC(Cn6cncn6)(c6ccc(Cl)cc6Cl)O5)cc4)CC3)cc2)c1=O (stereo not drawn) [itraconazole, Itraconazole, reference compound]
- MIC ([3]; A. fumigatus isolate #1): 1 µg/mL (≈ 1.42 µM)

Structure (SMILES): CC(C)(C)c1[nH]cnc1/C=c1\[nH]c(=O)/c(=C/c2ccccc2)[nH]c1=O [tBu-ΔPLH]
- EC50 ([1]; HT-29, read-out: EC50 (nM) HT29, Table 1): 13 nM
- EC50 [15]: 1 nM
